Species: Rattus norvegicus
Experiment: DrugMatrix - Regimen: Daily Repeat
Type: toxicity, organism-based, Sprague-Dawley
Parameters: regimen Daily Repeat, gender Male, age 6-8 weeks
Details: in vivo, po, route oral GAVAGE, vehicle 100 % WATER; for ABSOLUTE BASOPHIL / ABSOLUTE EOSINOPHIL / ABSOLUTE LYMPHOCYTE / ABSOLUTE MONOCYTE / ABSOLUTE SEGMENTED NEUTROPHIL / BASOPHIL / EOSINOPHIL / ERYTHROCYTE COUNT / HEMATOCRIT / HEMOGLOBIN / LEUKOCYTE COUNT / LYMPHOCYTE / MEAN CORPUSCULAR HEMOGLOBIN / MEAN CORPUSCULAR HEMOGLOBIN CONCENTRATION / MEAN CORPUSCULAR VOLUME / MONOCYTE / NEUTROPHIL / NUCLEATED RED BLOOD CELLS / PLATELET COUNT: tissue Blood; for ALANINE AMINOTRANSFERASE / ALBUMIN / ALKALINE PHOSPHATASE / ASPARTATE AMINOTRANSFERASE / BLOOD UREA NITROGEN / CARBON DIOXIDE / CHLORIDE / CHOLESTEROL / CREATINE PHOSPHOKINASE / CREATININE / GLUCOSE / LACTATE DEHYDROGENASE / LIPASE / PHOSPHORUS / POTASSIUM / SODIUM / TOTAL BILIRUBIN / TOTAL PROTEIN / URIC ACID: tissue Plasma
[1] = 13 mg/kg, 72 h, dose level Low, time 3 day
[2] = 13 mg/kg, 120 h, dose level Low, time 5 day
[3] = 300 mg/kg, 72 h, dose level High, time 3 day
[4] = 300 mg/kg, 120 h, dose level High, time 5 day

## OC(CCCN1CCCCC1)(c1ccccc1)c1ccccc1 [DIPHENIDOL]
[1]
  ABSOLUTE BASOPHIL: 0 CELLS/uL
  ABSOLUTE EOSINOPHIL: 54.67 CELLS/uL
  ABSOLUTE LYMPHOCYTE: 13934 CELLS/uL
  ABSOLUTE MONOCYTE: 204 CELLS/uL
  ABSOLUTE SEGMENTED NEUTROPHIL: 740.67 CELLS/uL
  BASOPHIL: 0%
  EOSINOPHIL: 0.33%
  ERYTHROCYTE COUNT: 5.67 x10E6/uL
  HEMATOCRIT: 36.33%
  HEMOGLOBIN: 14.43 G/DL
  LEUKOCYTE COUNT: 14.93 x10E3/uL
  LYMPHOCYTE: 93.33%
  MEAN CORPUSCULAR HEMOGLOBIN: 25.47 pg
  MEAN CORPUSCULAR HEMOGLOBIN CONCENTRATION: 39.7 G/DL
  MEAN CORPUSCULAR VOLUME: 64.07 fL
  MONOCYTE: 1.33%
  NEUTROPHIL: 5%
  NUCLEATED RED BLOOD CELLS: 0 /100WBC
  PLATELET COUNT: 1276.67 x10E3/uL
  ALANINE AMINOTRANSFERASE: 58.33 u/L
  ALBUMIN: 4.23 G/DL
  ALKALINE PHOSPHATASE: 408.67 u/L
  ASPARTATE AMINOTRANSFERASE: 99.33 u/L
  BLOOD UREA NITROGEN: 17.33 mg/dL
  CARBON DIOXIDE: 25 mmol/L
  CHLORIDE: 102.33 MEQ/L
  CHOLESTEROL: 72 mg/dL
  CREATINE PHOSPHOKINASE: 574 u/L
  CREATININE: 0.29 mg/dL
  GLUCOSE: 169.33 mg/dL
  LACTATE DEHYDROGENASE: 402.67 u/L
  LIPASE: 9.67 u/L
  PHOSPHORUS: 13.97 mg/dL
  POTASSIUM: 7.15 MEQ/L
  SODIUM: 146.43 MEQ/L
  TOTAL BILIRUBIN: 0.2 mg/dL
  TOTAL PROTEIN: 5.77 G/DL
  URIC ACID: 3.3 mg/dL
[2]
  ABSOLUTE BASOPHIL: 0 CELLS/uL
  ABSOLUTE EOSINOPHIL: 69 CELLS/uL
  ABSOLUTE LYMPHOCYTE: 13769 CELLS/uL
  ABSOLUTE MONOCYTE: 0 CELLS/uL
  ABSOLUTE SEGMENTED NEUTROPHIL: 1595.33 CELLS/uL
  BASOPHIL: 0%
  EOSINOPHIL: 0.33%
  ERYTHROCYTE COUNT: 5.45 x10E6/uL
  HEMATOCRIT: 34.73%
  HEMOGLOBIN: 13.73 G/DL
  LEUKOCYTE COUNT: 15.43 x10E3/uL
  LYMPHOCYTE: 89.67%
  MEAN CORPUSCULAR HEMOGLOBIN: 25.2 pg
  MEAN CORPUSCULAR HEMOGLOBIN CONCENTRATION: 39.53 G/DL
  MEAN CORPUSCULAR VOLUME: 63.8 fL
  MONOCYTE: 0%
  NEUTROPHIL: 10%
  NUCLEATED RED BLOOD CELLS: 0 /100WBC
  PLATELET COUNT: 1177.33 x10E3/uL
  ALANINE AMINOTRANSFERASE: 49 u/L
  ALBUMIN: 4.23 G/DL
  ALKALINE PHOSPHATASE: 358.67 u/L
  ASPARTATE AMINOTRANSFERASE: 78 u/L
  BLOOD UREA NITROGEN: 18.67 mg/dL
  CARBON DIOXIDE: 28 mmol/L
  CHLORIDE: 101.67 MEQ/L
  CHOLESTEROL: 68.67 mg/dL
  CREATINE PHOSPHOKINASE: 194.33 u/L
  CREATININE: 0.17 mg/dL
  GLUCOSE: 148.33 mg/dL
  LACTATE DEHYDROGENASE: 83.67 u/L
  LIPASE: 9 u/L
  PHOSPHORUS: 12.13 mg/dL
  POTASSIUM: 6.32 MEQ/L
  SODIUM: 146.57 MEQ/L
  TOTAL BILIRUBIN: 0.17 mg/dL
  TOTAL PROTEIN: 5.97 G/DL
  URIC ACID: 1.13 mg/dL
[3]
  ABSOLUTE BASOPHIL: 0 CELLS/uL
  ABSOLUTE EOSINOPHIL: 58 CELLS/uL
  ABSOLUTE LYMPHOCYTE: 16577.33 CELLS/uL
  ABSOLUTE MONOCYTE: 58 CELLS/uL
  ABSOLUTE SEGMENTED NEUTROPHIL: 1540 CELLS/uL
  BASOPHIL: 0%
  EOSINOPHIL: 0.33%
  ERYTHROCYTE COUNT: 5.58 x10E6/uL
  HEMATOCRIT: 35.57%
  HEMOGLOBIN: 14.3 G/DL
  LEUKOCYTE COUNT: 18.23 x10E3/uL
  LYMPHOCYTE: 91%
  MEAN CORPUSCULAR HEMOGLOBIN: 25.63 pg
  MEAN CORPUSCULAR HEMOGLOBIN CONCENTRATION: 40.17 G/DL
  MEAN CORPUSCULAR VOLUME: 63.8 fL
  MONOCYTE: 0.33%
  NEUTROPHIL: 8.33%
  NUCLEATED RED BLOOD CELLS: 0 /100WBC
  PLATELET COUNT: 1352.67 x10E3/uL
  ALANINE AMINOTRANSFERASE: 52 u/L
  ALBUMIN: 4.3 G/DL
  ALKALINE PHOSPHATASE: 318.33 u/L
  ASPARTATE AMINOTRANSFERASE: 74 u/L
  BLOOD UREA NITROGEN: 15.67 mg/dL
  CARBON DIOXIDE: 24.67 mmol/L
  CHLORIDE: 103.33 MEQ/L
  CHOLESTEROL: 80.33 mg/dL
  CREATINE PHOSPHOKINASE: 184 u/L
  CREATININE: 0.24 mg/dL
  GLUCOSE: 156.67 mg/dL
  LACTATE DEHYDROGENASE: 139.67 u/L
  LIPASE: 9 u/L
  PHOSPHORUS: 13.97 mg/dL
  POTASSIUM: 7.22 MEQ/L
  SODIUM: 146.87 MEQ/L
  TOTAL BILIRUBIN: 0.13 mg/dL
  TOTAL PROTEIN: 6.27 G/DL
  URIC ACID: 1.77 mg/dL
[4]
  ABSOLUTE BASOPHIL: 0 CELLS/uL
  ABSOLUTE EOSINOPHIL: 44 CELLS/uL
  ABSOLUTE LYMPHOCYTE: 14983.33 CELLS/uL
  ABSOLUTE MONOCYTE: 56.33 CELLS/uL
  ABSOLUTE SEGMENTED NEUTROPHIL: 783 CELLS/uL
  BASOPHIL: 0%
  EOSINOPHIL: 0.33%
  ERYTHROCYTE COUNT: 5.89 x10E6/uL
  HEMATOCRIT: 35.8%
  HEMOGLOBIN: 14.47 G/DL
  LEUKOCYTE COUNT: 15.87 x10E3/uL
  LYMPHOCYTE: 94.33%
  MEAN CORPUSCULAR HEMOGLOBIN: 24.63 pg
  MEAN CORPUSCULAR HEMOGLOBIN CONCENTRATION: 40.43 G/DL
  MEAN CORPUSCULAR VOLUME: 60.97 fL
  MONOCYTE: 0.33%
  NEUTROPHIL: 5%
  NUCLEATED RED BLOOD CELLS: 0.33 /100WBC
  PLATELET COUNT: 1311 x10E3/uL
  ALANINE AMINOTRANSFERASE: 67.67 u/L
  ALBUMIN: 4.47 G/DL
  ALKALINE PHOSPHATASE: 383 u/L
  ASPARTATE AMINOTRANSFERASE: 106.33 u/L
  BLOOD UREA NITROGEN: 14.33 mg/dL
  CARBON DIOXIDE: 23 mmol/L
  CHLORIDE: 101 MEQ/L
  CHOLESTEROL: 53.67 mg/dL
  CREATINE PHOSPHOKINASE: 291 u/L
  CREATININE: 0.27 mg/dL
  GLUCOSE: 161 mg/dL
  LACTATE DEHYDROGENASE: 445 u/L
  LIPASE: 11 u/L
  PHOSPHORUS: 14.9 mg/dL
  POTASSIUM: 6.65 MEQ/L
  SODIUM: 146.5 MEQ/L
  TOTAL BILIRUBIN: 0.1 mg/dL
  TOTAL PROTEIN: 6.2 G/DL
  URIC ACID: 2.83 mg/dL

Reference: ChEMBL document CHEMBL3885881, “DrugMatrix”
